Measured values from patent US20260053811A1, “METHODS OF TREATING HYPERTENSION IN OBESE SUBJECTS” (Mineralys Therapeutics, Inc., priority 2022, published 2026).

Test system: hypertensive subjects
Assay: Estimated glomerular filtration rate (eGFR, CKD-EPI equation)
Format: in vivo, human
Settings: for Estimated Glomerular Filtration Rate, Mean (SD) Change from Baseline / Estimated Glomerular Filtration Rate, Mean (SD) Observed: Part 1; for Estimated Glomerular Filtration Rate, Mean Change from Baseline / Estimated Glomerular Filtration Rate, Mean Observed: Part 2; for Change in estimated glomerular filtration rate (eGFR): across dosing cohorts
Method: In contrast, mean eGFR for the Placebo group was relatively stable throughout treatment, reaching a mean maximal reduction of −2.80 mL/min/1.73 m^2 at Week 2 (range: −0.83 mL/min/1.73 m^2 to −2.80 mL/min/1.73 m^2). Estimated glomerular filtration rate was estimated using the CKD-EPI equation.

## CC(=O)N[C@H]1CC[C@H](NC(=O)CN2CCN(c3nncc(-c4ccc(C)cc4)n3)CC2)CC1 [Compound A HBr]
Week 3, 50 mg QD
  Estimated Glomerular Filtration Rate, Mean (SD) Change from Baseline: −2.35 (8.51) mL/min/1.73 m^2
  Estimated Glomerular Filtration Rate, Mean (SD) Observed: 74.81 (15.62) mL/min/1.73 m^2
Week 3, 100 mg QD
  Estimated Glomerular Filtration Rate, Mean (SD) Change from Baseline: −9.24 (10.99) mL/min/1.73 m^2
  Estimated Glomerular Filtration Rate, Mean (SD) Observed: 67.22 (19.24) mL/min/1.73 m^2
  Estimated Glomerular Filtration Rate, Mean Change from Baseline: −7.33 mL/min/1.73 m^2
  Estimated Glomerular Filtration Rate, Mean Observed: 72.69 mL/min/1.73 m^2
Week 4, 12.5 mg BID
  Estimated Glomerular Filtration Rate, Mean (SD) Change from Baseline: −6.58 (9.17) mL/min/1.73 m^2
  Estimated Glomerular Filtration Rate, Mean (SD) Observed: 76.30 (18.28) mL/min/1.73 m^2
Week 4, 12.5 mg QD
  Estimated Glomerular Filtration Rate, Mean (SD) Change from Baseline: −5.45 (6.37) mL/min/1.73 m^2
  Estimated Glomerular Filtration Rate, Mean (SD) Observed: 73.40 (19.29) mL/min/1.73 m^2
Week 4, 25 mg BID
  Estimated Glomerular Filtration Rate, Mean (SD) Change from Baseline: −6.69 (8.97) mL/min/1.73 m^2
  Estimated Glomerular Filtration Rate, Mean (SD) Observed: 73.48 (15.26) mL/min/1.73 m^2
Week 4, 50 mg QD
  Estimated Glomerular Filtration Rate, Mean (SD) Change from Baseline: −3.61 (9.24) mL/min/1.73 m^2
  Estimated Glomerular Filtration Rate, Mean (SD) Observed: 73.63 (16.75) mL/min/1.73 m^2
Week 4, 100 mg QD
  Estimated Glomerular Filtration Rate, Mean (SD) Change from Baseline: −9.46 (12.53) mL/min/1.73 m^2
  Estimated Glomerular Filtration Rate, Mean (SD) Observed: 67.23 (19.70) mL/min/1.73 m^2
  Estimated Glomerular Filtration Rate, Mean Change from Baseline: −7.20 mL/min/1.73 m^2
  Estimated Glomerular Filtration Rate, Mean Observed: 72.92 mL/min/1.73 m^2
Week 5, 12.5 mg BID
  Estimated Glomerular Filtration Rate, Mean (SD) Change from Baseline: −7.58 (8.00) mL/min/1.73 m^2
  Estimated Glomerular Filtration Rate, Mean (SD) Observed: 73.84 (20.78) mL/min/1.73 m^2
Week 5, 12.5 mg QD
  Estimated Glomerular Filtration Rate, Mean (SD) Change from Baseline: −3.60 (5.70) mL/min/1.73 m^2
  Estimated Glomerular Filtration Rate, Mean (SD) Observed: 75.25 (19.58) mL/min/1.73 m^2
Week 5, 25 mg BID
  Estimated Glomerular Filtration Rate, Mean (SD) Change from Baseline: −7.41 (9.65) mL/min/1.73 m^2
  Estimated Glomerular Filtration Rate, Mean (SD) Observed: 73.25 (14.75) mL/min/1.73 m^2
Week 5, 50 mg QD
  Estimated Glomerular Filtration Rate, Mean (SD) Change from Baseline: −4.10 (9.61) mL/min/1.73 m^2
  Estimated Glomerular Filtration Rate, Mean (SD) Observed: 70.58 (13.23) mL/min/1.73 m^2
Week 5, 100 mg QD
  Estimated Glomerular Filtration Rate, Mean (SD) Change from Baseline: −10.50 (10.94) mL/min/1.73 m^2
  Estimated Glomerular Filtration Rate, Mean (SD) Observed: 66.19 (19.58) mL/min/1.73 m^2
  Estimated Glomerular Filtration Rate, Mean Change from Baseline: −8.69 mL/min/1.73 m^2
  Estimated Glomerular Filtration Rate, Mean Observed: 71.23 mL/min/1.73 m^2
Week 6, 12.5 mg BID
  Estimated Glomerular Filtration Rate, Mean (SD) Change from Baseline: −6.45 (8.05) mL/min/1.73 m^2
  Estimated Glomerular Filtration Rate, Mean (SD) Observed: 74.70 (16.86) mL/min/1.73 m^2
Week 6, 12.5 mg QD
  Estimated Glomerular Filtration Rate, Mean (SD) Change from Baseline: −6.28 (6.77) mL/min/1.73 m^2
  Estimated Glomerular Filtration Rate, Mean (SD) Observed: 73.39 (20.48) mL/min/1.73 m^2
Week 6, 25 mg BID
  Estimated Glomerular Filtration Rate, Mean (SD) Change from Baseline: −8.02 (9.17) mL/min/1.73 m^2
  Estimated Glomerular Filtration Rate, Mean (SD) Observed: 72.64 (15.33) mL/min/1.73 m^2
Week 6, 50 mg QD
  Estimated Glomerular Filtration Rate, Mean (SD) Change from Baseline: −2.83 (8.61) mL/min/1.73 m^2
  Estimated Glomerular Filtration Rate, Mean (SD) Observed: 74.63 (16.59) mL/min/1.73 m^2
Week 6, 100 mg QD
  Estimated Glomerular Filtration Rate, Mean (SD) Change from Baseline: −9.94 (12.91) mL/min/1.73 m^2
  Estimated Glomerular Filtration Rate, Mean (SD) Observed: 66.19 (21.44) mL/min/1.73 m^2
  Estimated Glomerular Filtration Rate, Mean Change from Baseline: −10.87 mL/min/1.73 m^2
  Estimated Glomerular Filtration Rate, Mean Observed: 68.04 mL/min/1.73 m^2
Week 7, 12.5 mg BID
  Estimated Glomerular Filtration Rate, Mean (SD) Change from Baseline: −7.03 (8.98) mL/min/1.73 m^2
  Estimated Glomerular Filtration Rate, Mean (SD) Observed: 75.85 (21.29) mL/min/1.73 m^2
Week 7, 12.5 mg QD
  Estimated Glomerular Filtration Rate, Mean (SD) Change from Baseline: −7.17 (8.80) mL/min/1.73 m^2
  Estimated Glomerular Filtration Rate, Mean (SD) Observed: 72.50 (22.45) mL/min/1.73 m^2
Week 7, 25 mg BID
  Estimated Glomerular Filtration Rate, Mean (SD) Change from Baseline: −7.85 (9.47) mL/min/1.73 m^2
  Estimated Glomerular Filtration Rate, Mean (SD) Observed: 72.22 (13.89) mL/min/1.73 m^2
Week 7, 50 mg QD
  Estimated Glomerular Filtration Rate, Mean (SD) Change from Baseline: −5.46 (10.42) mL/min/1.73 m^2
  Estimated Glomerular Filtration Rate, Mean (SD) Observed: 69.68 (12.23) mL/min/1.73 m^2
Week 7, 100 mg QD
  Estimated Glomerular Filtration Rate, Mean (SD) Change from Baseline: −9.50 (12.17) mL/min/1.73 m^2
  Estimated Glomerular Filtration Rate, Mean (SD) Observed: 66.96 (21.02) mL/min/1.73 m^2
  Estimated Glomerular Filtration Rate, Mean Change from Baseline: −7.34 mL/min/1.73 m^2
  Estimated Glomerular Filtration Rate, Mean Observed: 72.82 mL/min/1.73 m^2
Week 8, 12.5 mg BID
  Estimated Glomerular Filtration Rate, Mean (SD) Change from Baseline: −6.66 (7.92) mL/min/1.73 m^2
  Estimated Glomerular Filtration Rate, Mean (SD) Observed: 76.32 (19.63) mL/min/1.73 m^2
Week 8, 12.5 mg QD
  Estimated Glomerular Filtration Rate, Mean (SD) Change from Baseline: −3.67 (8.10) mL/min/1.73 m^2
  Estimated Glomerular Filtration Rate, Mean (SD) Observed: 76.00 (21.00) mL/min/1.73 m^2
Week 8, 25 mg BID
  Estimated Glomerular Filtration Rate, Mean (SD) Change from Baseline: −5.55 (9.22) mL/min/1.73 m^2
  Estimated Glomerular Filtration Rate, Mean (SD) Observed: 75.11 (14.81) mL/min/1.73 m^2
Week 8, 50 mg QD
  Estimated Glomerular Filtration Rate, Mean (SD) Change from Baseline: −4.64 (9.87) mL/min/1.73 m^2
  Estimated Glomerular Filtration Rate, Mean (SD) Observed: 72.54 (16.89) mL/min/1.73 m^2
Week 8, 100 mg QD
  Estimated Glomerular Filtration Rate, Mean (SD) Change from Baseline: −7.83 (11.62) mL/min/1.73 m^2
  Estimated Glomerular Filtration Rate, Mean (SD) Observed: 68.42 (20.14) mL/min/1.73 m^2
  Estimated Glomerular Filtration Rate, Mean Change from Baseline: −7.95 mL/min/1.73 m^2
  Estimated Glomerular Filtration Rate, Mean Observed: 72.43 mL/min/1.73 m^2
Week 1, 100 mg QD
  Estimated Glomerular Filtration Rate, Mean Change from Baseline: −9.65 mL/min/1.73 m^2
  Estimated Glomerular Filtration Rate, Mean Observed: 70.73 mL/min/1.73 m^2
Week 2, 100 mg QD
  Estimated Glomerular Filtration Rate, Mean Change from Baseline: −8.05 mL/min/1.73 m^2
  Estimated Glomerular Filtration Rate, Mean Observed: 72.07 mL/min/1.73 m^2
  Change in estimated glomerular filtration rate (eGFR): dose-dependent and reversible reduction in eGFR
Listed as lorundrostat
  Change in estimated glomerular filtration rate (eGFR): dose-dependent and reversible reduction in eGFR
